The values below are quoted from earlier work in article PMC3902791 (Molecular imaging and biology : MIB : the official …, 2012).

For data set [1] the following is noted: humans; cited from earlier work.
The subject of the next data set is monkey. The note with it: intravenous injection; cited from earlier work.
In the next data set the test system is dog. The note with it: cited from earlier work.

Like-named read-outs stand apart in the source and are kept apart here.

In the case of `C[11C](=O)O` [^11C-ACE, ^11C-labeled acetate], in data set [1], the effective dose was 0.0049 mSv/MBq; the “radiation absorbed dose, intestines” value was 0.01–0.011 mGy/MBq; the “radiation absorbed dose, kidneys” value is 0.0093 mGy/MBq; the “radiation absorbed dose, liver” value is reported as 0.006 mGy/MBq. Besides, in data set [1], the “radiation absorbed dose, pancreas” value is 0.017 mGy/MBq and the “radiation absorbed dose, urinary bladder” value was 0.0028 mGy/MBq.

On to `O=C([O-])CF.[Na+]` [sodium fluoroacetate], for which the LD50 is 5 mg/kg in the data set with monkey, 0.06 mg/kg in the data set with dog (intravenously) and 0.066 mg/kg with dog (orally).
